Like-named read-outs stand apart in the source and are kept apart here.
Key:
[1] = tested on: patients; test: Clinical trials of the Examples taken together (85 cases of patients in total); conditions: dosing regimen of the invention, amount per kg equal to or more than in the preceding animal tests
[2] = tested on: non-human animal (for example, a monkey); test: Continuous intravenous administration to a non-human animal, vasostimulant; type: in vivo; conditions: continuous i.v. 1 mg/kg/h to 2 mg/kg/h for several hours (4 to 6 hours), in the neighborhood of an effective dose
Excerpt: It can be said that this is an astonishingly excellent effect provided by the dosing regimen of the invention.

[3] = tested on: surgery patients at the age of 65 or older; conditions: in vivo
[4] = tested on: surgery patients at the age of 20 or older and younger than 65; conditions: in vivo
[5] = tested on: surgery patients at the age of 65 or older; conditions: in vivo; remark: listed apart in the source
[6] = tested on: surgery patients at the age of 20 or older and younger than 65; conditions: in vivo; remark: listed apart in the source

In the case of `COC(=O)CC[C@@H]1N=C(c2ccccn2)c2cc(Br)ccc2-n2c(C)cnc21.O=S(=O)(O)c1ccccc1` [Compound B, Methyl 3-[(4S)-8-bromo-1-methyl-6-(2-pyridinyl)-4H-imidazo[1,2-a][1,4]benzodiazepin-4-yl]propanoate benzenesulfonate], the Vasostimulant [1] is reported as “does not cause the vasostimulant”, the Vasostimulant [2] is reported as “vasostimulant is observed” and the “Completion rate of endotracheal intubation” value (from here on “Completion rate”) [3] is reported as 100%. For the same compound, the “Other side effects to be concerned or abnormal laboratory data” value (from here on “Other side effects”) [3] was “not observed”, the “Number of test subjects who developed hypotension, adverse event” value ([4]; human) was 3 patients and the “Proportion of test subjects who developed hypotension as a side effect” value ([4]; human) was 10%. For the same compound, the “Average time until the patient opened eyes” value [4] was 13.9 min, the “Average time until the patient stated the date of birth” value [4] was 21.5 min and the “Average time until the patient were allowed to leave the surgery room” value [4] was 25.5 min. For the same compound, the “Average time until the trachea was extubated” value [4] was 16.4 min, the “Other side effects” value [4] was “not observed” and the Recollection during anesthesia ([4]; 1 mg/kg) was “no recollection”. For the same compound, the “Salvage treatment for sedation during surgery” value ([4]; 1 mg/kg) was “without performing a salvage treatment”, the “Signs of awakening during the surgery” value ([4]; 1 mg/kg) was “not observed” and the “Completion rate” value ([4]; 12 mg/kg) was 100%. The “Time until loss of consciousness (range of actual values)” value ([4]; 12 mg/kg) was “(48-120) sec”, the “Number of test subjects who developed hypotension, adverse event” value ([5]; human) was 3 Patients and the “Proportion of test subjects who developed hypotension as a side effect” value ([5]; human) was 20%. For the same compound, the “Average time until the patient opened eyes” value [5] was 10.9 min, the “Average time until the patient stated the date of birth” value [5] was 18.5 min and the “Average time until the patient were allowed to leave the surgery room” value [5] was 19.1 min. For the same compound, the “Average time until the trachea was extubated” value [5] was 13.6 min, the “Other side effects” value [5] was “not observed” and the Recollection during anesthesia ([5]; 1 mg/kg) was “no recollection”. For the same compound, the “Salvage treatment for sedation during surgery” value ([5]; 1 mg/kg) was “without performing a salvage treatment”, the “Signs of awakening during the surgery” value ([5]; 1 mg/kg) was “not observed” and the “Completion rate” value ([5]; 4 mg/kg) was 100%. For the same compound, the “Time until loss of consciousness (range of actual values)” value ([5]; 4 mg/kg) was “(70-135) sec” and the “Other side effects” value [6] was “not observed”.
